In ChEMBL document CHEMBL1129336, “Ryanodine action at calcium release channels. 2. relation to substituents of the cyclohexane ring” (J Med Chem, 1996):

Each compound was assayed against Ryanodine receptor 2 (Mus musculus) (UniProt E9Q401) (assay: Displacement of [3H]ryanodine from ryanodine receptor(ryr) of Mouse brain).
Sequence of Ryanodine receptor 2 (Mus musculus) (E9Q401 whole entry, looked up): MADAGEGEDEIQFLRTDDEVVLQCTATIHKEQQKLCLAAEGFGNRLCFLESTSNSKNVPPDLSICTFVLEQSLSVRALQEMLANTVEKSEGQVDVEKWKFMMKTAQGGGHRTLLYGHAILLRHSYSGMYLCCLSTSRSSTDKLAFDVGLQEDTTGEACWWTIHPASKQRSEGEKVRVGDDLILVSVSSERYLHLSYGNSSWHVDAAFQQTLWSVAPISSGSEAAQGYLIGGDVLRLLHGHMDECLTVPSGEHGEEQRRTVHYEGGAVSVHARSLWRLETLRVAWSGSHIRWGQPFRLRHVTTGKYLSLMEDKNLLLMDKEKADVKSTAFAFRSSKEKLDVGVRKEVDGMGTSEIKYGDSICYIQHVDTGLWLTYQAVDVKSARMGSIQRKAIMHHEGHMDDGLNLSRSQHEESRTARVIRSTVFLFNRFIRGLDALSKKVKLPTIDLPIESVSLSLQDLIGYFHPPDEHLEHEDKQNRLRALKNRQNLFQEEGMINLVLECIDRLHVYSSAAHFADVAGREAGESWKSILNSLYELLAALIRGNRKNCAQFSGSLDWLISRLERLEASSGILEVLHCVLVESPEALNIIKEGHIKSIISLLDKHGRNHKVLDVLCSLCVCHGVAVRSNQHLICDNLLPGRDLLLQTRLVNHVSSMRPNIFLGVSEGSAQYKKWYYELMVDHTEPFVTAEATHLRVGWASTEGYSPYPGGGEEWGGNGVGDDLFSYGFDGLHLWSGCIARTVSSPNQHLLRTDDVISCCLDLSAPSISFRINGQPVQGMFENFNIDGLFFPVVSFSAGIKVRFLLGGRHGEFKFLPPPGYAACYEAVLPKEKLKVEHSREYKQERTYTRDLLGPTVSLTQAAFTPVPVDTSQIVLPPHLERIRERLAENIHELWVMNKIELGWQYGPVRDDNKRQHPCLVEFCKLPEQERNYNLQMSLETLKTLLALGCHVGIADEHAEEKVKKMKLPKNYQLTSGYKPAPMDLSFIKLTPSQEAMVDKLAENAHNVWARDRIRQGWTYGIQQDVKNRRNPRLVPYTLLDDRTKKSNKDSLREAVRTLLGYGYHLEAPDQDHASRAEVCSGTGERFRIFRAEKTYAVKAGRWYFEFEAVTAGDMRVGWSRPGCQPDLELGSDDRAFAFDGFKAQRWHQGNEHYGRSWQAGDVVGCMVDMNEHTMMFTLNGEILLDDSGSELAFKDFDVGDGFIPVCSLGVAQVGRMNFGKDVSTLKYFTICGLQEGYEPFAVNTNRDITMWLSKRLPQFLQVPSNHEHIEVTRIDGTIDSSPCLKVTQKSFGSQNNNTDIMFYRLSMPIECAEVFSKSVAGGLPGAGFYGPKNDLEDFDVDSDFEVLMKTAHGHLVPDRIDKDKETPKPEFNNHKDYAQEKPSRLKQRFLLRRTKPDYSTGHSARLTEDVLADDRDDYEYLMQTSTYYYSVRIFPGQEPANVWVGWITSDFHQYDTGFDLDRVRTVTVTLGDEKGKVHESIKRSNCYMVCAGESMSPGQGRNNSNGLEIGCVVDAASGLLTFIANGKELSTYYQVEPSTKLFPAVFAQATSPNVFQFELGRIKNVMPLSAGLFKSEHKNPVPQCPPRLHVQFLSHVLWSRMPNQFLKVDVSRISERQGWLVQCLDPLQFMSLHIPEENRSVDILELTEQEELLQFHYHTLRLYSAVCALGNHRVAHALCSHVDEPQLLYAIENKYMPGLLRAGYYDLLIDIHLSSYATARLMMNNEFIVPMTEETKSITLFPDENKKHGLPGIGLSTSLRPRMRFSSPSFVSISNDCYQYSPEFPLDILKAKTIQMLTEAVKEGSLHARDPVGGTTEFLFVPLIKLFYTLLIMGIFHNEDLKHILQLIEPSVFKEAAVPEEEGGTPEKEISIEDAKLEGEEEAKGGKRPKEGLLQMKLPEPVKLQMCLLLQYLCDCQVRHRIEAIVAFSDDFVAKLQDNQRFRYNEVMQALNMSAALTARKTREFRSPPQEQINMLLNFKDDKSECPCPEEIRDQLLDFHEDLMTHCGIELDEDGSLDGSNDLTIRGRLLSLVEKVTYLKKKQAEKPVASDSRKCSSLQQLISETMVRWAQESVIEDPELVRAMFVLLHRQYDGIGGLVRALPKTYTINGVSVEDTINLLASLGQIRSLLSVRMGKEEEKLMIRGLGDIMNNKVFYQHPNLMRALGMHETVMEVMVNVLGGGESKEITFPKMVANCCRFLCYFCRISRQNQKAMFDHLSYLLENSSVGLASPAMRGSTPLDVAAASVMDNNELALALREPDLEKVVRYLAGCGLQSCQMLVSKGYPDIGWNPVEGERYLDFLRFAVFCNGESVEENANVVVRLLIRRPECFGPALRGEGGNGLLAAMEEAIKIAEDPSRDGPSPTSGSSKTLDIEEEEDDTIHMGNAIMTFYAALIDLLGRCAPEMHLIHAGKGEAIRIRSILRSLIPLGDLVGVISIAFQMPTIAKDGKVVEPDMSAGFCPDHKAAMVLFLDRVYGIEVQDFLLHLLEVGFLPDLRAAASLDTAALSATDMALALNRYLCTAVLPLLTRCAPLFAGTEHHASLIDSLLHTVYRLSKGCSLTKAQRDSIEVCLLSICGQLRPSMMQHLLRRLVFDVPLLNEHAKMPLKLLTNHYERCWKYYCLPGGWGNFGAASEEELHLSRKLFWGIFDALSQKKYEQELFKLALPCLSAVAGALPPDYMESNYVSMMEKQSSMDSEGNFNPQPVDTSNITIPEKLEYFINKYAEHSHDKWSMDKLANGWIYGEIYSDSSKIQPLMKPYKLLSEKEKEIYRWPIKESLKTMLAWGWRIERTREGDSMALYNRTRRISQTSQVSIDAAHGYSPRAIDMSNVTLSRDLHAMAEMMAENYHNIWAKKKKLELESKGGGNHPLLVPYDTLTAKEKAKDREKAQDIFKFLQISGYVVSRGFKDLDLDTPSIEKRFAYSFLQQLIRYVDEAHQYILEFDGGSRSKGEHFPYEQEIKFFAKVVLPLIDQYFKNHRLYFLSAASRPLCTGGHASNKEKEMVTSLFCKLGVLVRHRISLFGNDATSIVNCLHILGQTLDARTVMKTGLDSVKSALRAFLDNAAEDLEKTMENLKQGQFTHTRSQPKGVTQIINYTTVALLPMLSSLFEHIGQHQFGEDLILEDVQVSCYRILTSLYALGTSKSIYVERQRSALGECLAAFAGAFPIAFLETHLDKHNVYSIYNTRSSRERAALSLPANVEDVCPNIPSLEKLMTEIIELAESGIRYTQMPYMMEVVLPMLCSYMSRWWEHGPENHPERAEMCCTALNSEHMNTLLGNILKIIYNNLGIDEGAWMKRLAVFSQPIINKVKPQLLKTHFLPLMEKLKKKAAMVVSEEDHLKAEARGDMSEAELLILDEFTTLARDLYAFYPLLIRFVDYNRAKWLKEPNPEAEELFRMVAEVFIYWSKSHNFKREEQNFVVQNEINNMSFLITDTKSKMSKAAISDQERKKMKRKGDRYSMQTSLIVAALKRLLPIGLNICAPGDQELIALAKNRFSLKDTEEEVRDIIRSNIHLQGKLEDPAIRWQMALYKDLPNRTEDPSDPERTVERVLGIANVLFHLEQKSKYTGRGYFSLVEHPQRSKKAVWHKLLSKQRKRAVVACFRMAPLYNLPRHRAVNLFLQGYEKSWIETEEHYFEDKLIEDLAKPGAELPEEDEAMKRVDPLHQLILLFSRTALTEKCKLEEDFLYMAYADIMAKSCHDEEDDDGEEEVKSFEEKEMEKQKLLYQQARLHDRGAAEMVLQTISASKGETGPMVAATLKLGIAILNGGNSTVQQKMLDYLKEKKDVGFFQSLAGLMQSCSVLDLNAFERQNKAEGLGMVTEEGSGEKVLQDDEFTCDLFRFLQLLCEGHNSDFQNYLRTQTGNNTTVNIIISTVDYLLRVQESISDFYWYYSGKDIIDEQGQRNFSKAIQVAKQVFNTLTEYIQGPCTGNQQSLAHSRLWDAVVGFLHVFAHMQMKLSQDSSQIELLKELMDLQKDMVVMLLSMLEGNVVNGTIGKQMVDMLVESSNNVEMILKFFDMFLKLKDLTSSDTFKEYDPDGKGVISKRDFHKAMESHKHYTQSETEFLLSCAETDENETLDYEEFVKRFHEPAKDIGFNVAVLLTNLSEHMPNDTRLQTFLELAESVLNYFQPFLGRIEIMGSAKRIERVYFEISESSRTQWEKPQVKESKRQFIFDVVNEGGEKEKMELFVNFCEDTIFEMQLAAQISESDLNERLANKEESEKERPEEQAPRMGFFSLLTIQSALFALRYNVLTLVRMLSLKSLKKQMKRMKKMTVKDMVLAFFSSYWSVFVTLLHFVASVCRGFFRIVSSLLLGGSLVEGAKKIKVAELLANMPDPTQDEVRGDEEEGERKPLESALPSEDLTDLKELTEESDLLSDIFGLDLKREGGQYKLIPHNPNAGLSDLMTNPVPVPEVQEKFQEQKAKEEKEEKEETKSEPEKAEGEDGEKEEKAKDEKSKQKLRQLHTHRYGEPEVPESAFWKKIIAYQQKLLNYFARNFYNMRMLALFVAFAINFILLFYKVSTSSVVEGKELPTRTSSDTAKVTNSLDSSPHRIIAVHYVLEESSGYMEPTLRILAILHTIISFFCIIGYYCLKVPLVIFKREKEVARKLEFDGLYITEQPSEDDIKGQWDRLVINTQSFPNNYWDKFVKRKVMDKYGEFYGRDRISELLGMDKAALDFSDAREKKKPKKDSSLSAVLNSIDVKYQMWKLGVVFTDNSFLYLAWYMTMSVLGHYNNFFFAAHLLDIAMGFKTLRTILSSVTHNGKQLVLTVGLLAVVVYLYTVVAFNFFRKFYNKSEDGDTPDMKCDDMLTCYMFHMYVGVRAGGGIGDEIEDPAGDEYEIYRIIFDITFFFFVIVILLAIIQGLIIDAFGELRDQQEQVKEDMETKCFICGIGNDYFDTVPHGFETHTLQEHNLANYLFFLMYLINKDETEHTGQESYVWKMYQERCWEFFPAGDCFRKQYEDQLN
In the case of CO/N=C1\C(C)CCC2(O)C3(C)CC4(O)OC12C1(O)C3(O)C(OC(=O)c2ccc[nH]2)C(O)(C(C)C)C41C (stereo not given), the Relative activity is reported as 13. In the case of C=C1CCC2(O)C3(C)CC4(O)OC2(C1OC(=O)c1ccccc1)C1(O)C3(O)C(OC(=O)c2ccc[nH]2)C(O)(C(C)C)C41C (stereo not given), the Relative activity is reported as 17. CC1CCC2(O)C3(C)CC4(O)OC2(C1N)C1(O)C3(O)C(OC(=O)c2ccc[nH]2)C(O)(C(C)C)C41C (stereo not given) showed a Relative activity of 65. In the case of CC(C)C1(O)C(OC(=O)c2ccc[nH]2)C2(O)C3(C)CC4(O)OC5(CC(O)CCC35O)C2(O)C41C (stereo not given), the Relative activity is reported as 0.4. Work on CC(C)C1(O)C(OC(=O)c2ccc[nH]2)C2(O)C3(C)CC4(O)OC5(CCCCC35O)C2(O)C41C (stereo not given) yielded a Relative activity of 18.
